Patent US12252701B2, “Chimeric antigen receptor T cell therapy” (KITE PHARMA, INC., priority 2020, dated 2025)

How the values were obtained:
[1] = test system: phospho-STAT panel (pSTAT3/4/5), CD3+ T cells; assay: phospho-STAT induction by IL-6, MesoScale Discovery phospho-STAT panel; type: cell-based, human; details: for pSTAT3 / pSTAT4 / pSTAT5: CD3+ T cells
Procedure: CD19 CAR-T, PBMC or CD3+ T cells (AllCells) were thawed and rested 0/N at 37° C. in R10 media. Cells were seeded at 700,000 cells/well and were either untreated or treated with 100 ng/ml IL6+drug at indicated concentrations for 20 minutes at 37° C. The cells were then washed with cold PBS and followed by 60 μl of Tris lysis buffer (provided by MSD) for 30 minutes on ice. Lysates were collected by spin down for 10 minutes at >10,000 rpm. 25 μl/well per condition was used for MesoScale Discovery (MSD) assay using the phospho-STAT panel (pSTAT3/4/5) from MesoScale Discovery following the manufacturer's protocol. pSTAT panel plates were blocked with 150 μl of blocker A solution for 1 hr at RT with shaking. Plates were washed three times with 1× Tris wash buffer. 25 μl of lysate samples were added per well, incubated 2 hr at room temperature or at 4° C. overnight. Plates were washed 3 times with 1× tris wash buffer and then 25 μl of detection antibody solution were added to each well and incubated for 1 hr at room temperature with shaking. Plates were washed and 1× read buffer added to each well and plates were read on the MSD instrument.

[2] = test system: phospho-STAT-1, -3 and -5 in purified CD14+ monocytes; assay: Intracellular phospho-STAT-1, -3, -5 by BD PhosphoFlow in purified monocytes; type: cell-based, human
Procedure: (§1) Further experiments were performed to look at impacts of JAK inhibitors on STAT phosphorylation in various immune cell subsets.

[3] = test system: phospho-STAT-1, -3 and -5 in CD4, CD8 T cells and monocytes (CAR T product, PBMCs); assay: Intracellular phospho-STAT-1, -3, -5 by flow cytometry in immune cell subsets of CAR T product and PBMCs; type: cell-based, human; details: for pSTAT-5 inhibition: GM-CSF stimulated PBMC
Procedure: as §1

[4] = test system: Nalm-6 luc; assay: CAR-T cell killing assay (luciferase viability of tumor cells)
[5] = test system: NALM6.GFP.LUC.CD19 target cells; assay: Serial killing assay of CAR-T, percent cytotoxicity by luciferase detection; details: in vitro at clinically relevant dose levels
[6] = purified CD14+ monocytes, CAR T cell-derived supernatant, 30 min
[7] = purified CD14+ monocytes, rh-GM-CSF-induced
[8] = purified CD14+ monocytes, rhIFNg-induced
[9] = purified CD14+ monocytes, rhIL6-induced
[10] = purified monocytes, CAR T derived cytokines/supernatant stimulation, 30 min

## O=C(Nc1nc2cccc(-c3ccc(CN4CCS(=O)(=O)CC4)cc3)n2n1)C1CC1 [filgotinib]
[1]; 100 ng/ml IL-6 + drug 10 uM, 20 min, MSD signal (No stim. 689, IL-6 alone 33641)
  pSTAT3: 2169
[1]; 100 ng/ml IL-6 + drug 10 uM, 20 min, MSD signal (No stim. 1964, IL-6 alone 15405)
  pSTAT4: 2121
[1]; 100 ng/ml IL-6 + drug 10 uM, 20 min, MSD signal (No stim. 9210, IL-6 alone 17743)
  pSTAT5: 1610
[1]; IL-6 + drug 0.125 uM, MSD signal (No stim. 689, IL-6 alone 33641)
  pSTAT3: 23255
[1]; IL-6 + drug 0.125 uM, MSD signal (No stim. 1964, IL-6 alone 15405)
  pSTAT4: 9977
[1]; IL-6 + drug 0.125 uM, MSD signal (No stim. 9210, IL-6 alone 17743)
  pSTAT5: 10484
[1]; IL-6 + drug 0.5 uM, MSD signal (No stim. 689, IL-6 alone 33641)
  pSTAT3: 15242
[1]; IL-6 + drug 0.5 uM, MSD signal (No stim. 1964, IL-6 alone 15405)
  pSTAT4: 5570
[1]; IL-6 + drug 0.5 uM, MSD signal (No stim. 9210, IL-6 alone 17743)
  pSTAT5: 5170
[1]; IL-6 + drug 1 uM, MSD signal (No stim. 689, IL-6 alone 33641)
  pSTAT3: 11163
[1]; IL-6 + drug 1 uM, MSD signal (No stim. 1964, IL-6 alone 15405)
  pSTAT4: 4642
[1]; IL-6 + drug 1 uM, MSD signal (No stim. 9210, IL-6 alone 17743)
  pSTAT5: 3679
[1]; IL-6 + drug 5 uM, MSD signal (No stim. 689, IL-6 alone 33641)
  pSTAT3: 2667
[1]; IL-6 + drug 5 uM, MSD signal (No stim. 1964, IL-6 alone 15405)
  pSTAT4: 2172
[1]; IL-6 + drug 5 uM, MSD signal (No stim. 9210, IL-6 alone 17743)
  pSTAT5: 1797
[1]; IL-6 stimulation 100 ng/ml, 20 minutes, 10 μM to 0.125 μM
  effect on phosphorylated-STAT-1, STAT-3 and STAT-5 levels: reduction of phosphorylated-STAT-1, STAT-3 and STAT-5 levels in a dose-responsive manner
[1]; lower dose titration, IL-6 + drug 3.125 nM, MSD signal (No stim. 123, IL-6 alone 5767)
  pSTAT3: 4968
[1]; lower dose titration, IL-6 + drug 3.125 nM, MSD signal (No stim. 281, IL-6 alone 3624)
  pSTAT4: 3059
[1]; lower dose titration, IL-6 + drug 3.125 nM, MSD signal (No stim. 324, IL-6 alone 2352)
  pSTAT5: 2812
[1]; lower dose titration, IL-6 + drug 6.25 nM, MSD signal (No stim. 123, IL-6 alone 5767)
  pSTAT3: 6740
[1]; lower dose titration, IL-6 + drug 6.25 nM, MSD signal (No stim. 281, IL-6 alone 3624)
  pSTAT4: 4324
[1]; lower dose titration, IL-6 + drug 6.25 nM, MSD signal (No stim. 324, IL-6 alone 2352)
  pSTAT5: 2724
[1]; lower dose titration, IL-6 + drug 12.5 nM, MSD signal (No stim. 123, IL-6 alone 5767)
  pSTAT3: 6547
[1]; lower dose titration, IL-6 + drug 12.5 nM, MSD signal (No stim. 281, IL-6 alone 3624)
  pSTAT4: 3479
[1]; lower dose titration, IL-6 + drug 12.5 nM, MSD signal (No stim. 324, IL-6 alone 2352)
  pSTAT5: 2253
[1]; lower dose titration, IL-6 + drug 25 nM, MSD signal (No stim. 123, IL-6 alone 5767)
  pSTAT3: 5737
[1]; lower dose titration, IL-6 + drug 25 nM, MSD signal (No stim. 281, IL-6 alone 3624)
  pSTAT4: 3452
[1]; lower dose titration, IL-6 + drug 25 nM, MSD signal (No stim. 324, IL-6 alone 2352)
  pSTAT5: 2020
[1]; lower dose titration, IL-6 + drug 50 nM, MSD signal (No stim. 123, IL-6 alone 5767)
  pSTAT3: 6248
[1]; lower dose titration, IL-6 + drug 50 nM, MSD signal (No stim. 281, IL-6 alone 3624)
  pSTAT4: 3208
[1]; lower dose titration, IL-6 + drug 50 nM, MSD signal (No stim. 324, IL-6 alone 2352)
  pSTAT5: 1951
[1]; lower dose titration, IL-6 + drug 100 nM, MSD signal (No stim. 123, IL-6 alone 5767)
  pSTAT3: 5441
[1]; lower dose titration, IL-6 + drug 100 nM, MSD signal (No stim. 281, IL-6 alone 3624)
  pSTAT4: 2047
[1]; lower dose titration, IL-6 + drug 100 nM, MSD signal (No stim. 324, IL-6 alone 2352)
  pSTAT5: 1246
[2]
  IFN-gamma induction of pSTAT-1, 3 and 5: strongly suppressed
[2]; purified CD14+ monocytes
  pSTAT-5 induction by GM-CSF: not inhibited
[2]; [6]
  Monocyte-specific pSTAT1 signaling, inhibition: 91%
  Monocyte-specific pSTAT3 signaling, inhibition: 100%
  Monocyte-specific pSTAT5 signaling, inhibition: 0%
[2]; [7]
  Monocyte-specific pSTAT1 signaling, inhibition: na/ni
  Monocyte-specific pSTAT3 signaling, inhibition: na/ni
  Monocyte-specific pSTAT5 signaling, inhibition: 0%
[2]; [8]
  Monocyte-specific pSTAT1 signaling, inhibition: 100%
  Monocyte-specific pSTAT3 signaling, inhibition: 100%
  Monocyte-specific pSTAT5 signaling, inhibition: 98%
[2]; [9]
  Monocyte-specific pSTAT1 signaling, inhibition: na/ni
  Monocyte-specific pSTAT3 signaling, inhibition: 51%
  Monocyte-specific pSTAT5 signaling, inhibition: na/ni
[2]; purified monocytes stimulated by IL-6
  pSTAT-3 inhibition: 51%
[2]; [10]
  pSTAT1 inhibition: 91%
  pSTAT3 inhibition: 100%
[3]; CAR T product
  inhibitory activity of each p-STAT, CD4 versus CD8 T cells: stronger inhibitory activity (magnitudes) of each p-STAT in CD4 T cells compared to CD8 T cells
[3]; CD4 CART cells
  Primary Cell IL-6 pSTAT1 signaling (% inhibition): 45%
  Primary Cell IL-6 pSTAT3 signaling (% inhibition): 50%
  Primary Cell IL-6 pSTAT5 signaling (% inhibition): 59%
[3]; CD8 CART cells
  Primary Cell IL-6 pSTAT1 signaling (% inhibition): 17%
  Primary Cell IL-6 pSTAT3 signaling (% inhibition): 38%
  Primary Cell IL-6 pSTAT5 signaling (% inhibition): 50%
[3]; CD3+ T cells
  pSTAT-5 inhibition: 40%
[3]; CD14+ monocytes
  pSTAT-5 inhibition: 28%
[3]; IL-6 stimulation
  effect on phosphorylated-STAT-1, -STAT-3 and -STAT5 levels: reduction of phosphorylated-STAT-1, -STAT-3 and -STAT5 levels
[3]; Monocytes within bulk PBMCs
  Primary cell GM-CSF-pSTAT5, inhibition: 28%
[3]; PBMC CD4 T cells
  Primary Cell IL-6 pSTAT1 signaling (% inhibition): 67%
  Primary Cell IL-6 pSTAT3 signaling (% inhibition): 52%
  Primary Cell IL-6 pSTAT5 signaling (% inhibition): 83%
[3]; PBMC CD8 T cells
  Primary Cell IL-6 pSTAT1 signaling (% inhibition): 26%
  Primary Cell IL-6 pSTAT3 signaling (% inhibition): 37%
  Primary Cell IL-6 pSTAT5 signaling (% inhibition): 49%
[3]; PBMC Monocytes
  Primary Cell IL-6 pSTAT1 signaling (% inhibition): 50%
  Primary Cell IL-6 pSTAT3 signaling (% inhibition): 74%
  Primary Cell IL-6 pSTAT5 signaling (% inhibition): 34%
[3]; T cells from PBMCs
  inhibitory activity of each p-STAT, CD4 versus CD8 T cells: stronger inhibitory activity (magnitudes) of each p-STAT in CD4 T cells compared to CD8 T cells
[3]; T cells within bulk PBMCs
  Primary cell GM-CSF-pSTAT5, inhibition: 40%
[4]; E:T ratio 1:1, dose 250 nM
  Mean tumor cell death (%): 96.89%
[4]; E:T ratio 1:1, dose 500 nM
  Mean tumor cell death (%): 97.54%
[4]; E:T ratio 1:1, dose 1000 nM
  Mean tumor cell death (%): 92.04%
[4]; E:T ratio 1:3, dose 250 nM
  Mean tumor cell death (%): 55.79%
[4]; E:T ratio 1:3, dose 500 nM
  Mean tumor cell death (%): 48.50%
[4]; E:T ratio 1:3, dose 1000 nM
  Mean tumor cell death (%): 35.36%
[4]; E:T ratio 1:9, dose 250 nM
  Mean tumor cell death (%): 20.47%
[4]; E:T ratio 1:9, dose 500 nM
  Mean tumor cell death (%): 14.82%
[4]; E:T ratio 1:9, dose 1000 nM
  Mean tumor cell death (%): 9.49%
[5]
  effect on CAR T cells in cell killing, serial killing and T cell expansion assays: not accompanied by a detrimental effect on CAR T cells
